The record followed here is article PMC8434050, “Design, Synthesis and SAR in 2,4,7-Trisubstituted Pyrido[3,2-d]Pyrimidine Series as Novel PI3K/mTOR Inhibitors” (Molecules, 2021).

Assay [1] deals with mammary carcinoma MDA-MB231. The assay is described as follows: Cytotoxic assay on MDA-MB231. It counts as cell-based. The following applies: Homo sapiens, MDA-MB-231; 48 h of treatment, cell number by Hoechst nuclei staining, mean of triplicate. How it is done:
(§1) Cell culture. Skin normal fibroblastic cells were purchased from Lonza (Basel, Switzerland), HuH7, Caco-2, MDA-MB-231 and Hacat cancer cell lines were obtained from the ECACC collection (Porton Down, UK). Cells were grown at 37 °C, 5% CO2 in ECACC recommended media: DMEM for HuH7, MDA-MB-231 and fibroblast, EMEM for CaCo-2 and Hacat. All culture media were supplemented by 10% of FBS, 1% of penicillin-streptomycin and 2 mM glutamine.
(§2) Cytotoxic assay. Chemicals were solubilized in DMSO at a concentration of 10 mM (stock solution) and diluted in culture medium to the desired final concentrations. […] Cells were plated in 96-well plates (4000 cells/well). Twenty-four hours after seeding, cells were exposed to chemicals. After 48h of treatment, cells were washed in PBS and fixed in cooled 90% ethanol/5% acetic acid for 20 min and the nuclei were stained with Hoechst 33,342 (B2261 Sigma). Image acquisition and analysis were performed using a Cellomics ArrayScan VTI/HCS Reader (ThermoScientific). The survival percentages were calculated as the percentage of cell number after compound treatment over cell number after DMSO treatment. The relative IC50 were calculated using the curve fitting XLfit 5.5.0.5 (idbs) integrated in Microsoft Excel as an add-on. The 4 Parameter Logistic Model or Sigmoidal Dose-Response Model was used (fit = (A + ((B − A)/(1 + ((C/x)^D))))).

A further assay deals with normal human fibroblast. The assay is described as follows: Cytotoxic assay on fibroblasts. It counts as cell-based. The following applies: 48 h of treatment, cell number by Hoechst nuclei staining, mean of triplicate. How it is done:
as §1, §2

Another assay has as its target mTOR (Homo sapiens, UniProt P42345). The assay is described as follows: mTOR kinase assay (LANCE Ultra kit; capillary electrophoresis assay). It counts as biochemical. The settings on record: selectivity index, IC50 mTOR / IC50 PI3Kα.
For another assay, the target named is PI3Kβ (Homo sapiens, UniProt P42338). The assay is described as follows: PI3K isoform kinase assay, β (CE-assay). It counts as biochemical. The settings on record: read-out: IC50 on PI3K Isoforms, β. How it is done: (§3) The CE system used was a 1600 Hewlett Packard^3DCE (Agilent, Waldbronn, Germany) equipped with a photodiode array detection system. Agilent software 3D-CE Chemstation (rev B.04.02) was used to pilot the CE system and for signal acquisition. CE analyses were performed in silica capillaries (66 cm total length, 57.5 cm effective length, 50 µm i.d.) purchased from Polymicro Technologies (Phoenix, AZ, USA). New capillaries were conditioned by 1.0 M NaOH for 30 min and water for 5 min. They were then coated by rinsing with cationic PDADMAC solution (0.2% w/v). The separation was conducted at −30 kV (reverse polarity) and at 30 °C. All rinse cycles were carried out at 4 bars. Between runs, the capillary was flushed for 1 min with water, 2 min with PDADMAC and 3 min with BGE.
Sequence of PI3Kβ (P42338 whole entry, canonical isoform): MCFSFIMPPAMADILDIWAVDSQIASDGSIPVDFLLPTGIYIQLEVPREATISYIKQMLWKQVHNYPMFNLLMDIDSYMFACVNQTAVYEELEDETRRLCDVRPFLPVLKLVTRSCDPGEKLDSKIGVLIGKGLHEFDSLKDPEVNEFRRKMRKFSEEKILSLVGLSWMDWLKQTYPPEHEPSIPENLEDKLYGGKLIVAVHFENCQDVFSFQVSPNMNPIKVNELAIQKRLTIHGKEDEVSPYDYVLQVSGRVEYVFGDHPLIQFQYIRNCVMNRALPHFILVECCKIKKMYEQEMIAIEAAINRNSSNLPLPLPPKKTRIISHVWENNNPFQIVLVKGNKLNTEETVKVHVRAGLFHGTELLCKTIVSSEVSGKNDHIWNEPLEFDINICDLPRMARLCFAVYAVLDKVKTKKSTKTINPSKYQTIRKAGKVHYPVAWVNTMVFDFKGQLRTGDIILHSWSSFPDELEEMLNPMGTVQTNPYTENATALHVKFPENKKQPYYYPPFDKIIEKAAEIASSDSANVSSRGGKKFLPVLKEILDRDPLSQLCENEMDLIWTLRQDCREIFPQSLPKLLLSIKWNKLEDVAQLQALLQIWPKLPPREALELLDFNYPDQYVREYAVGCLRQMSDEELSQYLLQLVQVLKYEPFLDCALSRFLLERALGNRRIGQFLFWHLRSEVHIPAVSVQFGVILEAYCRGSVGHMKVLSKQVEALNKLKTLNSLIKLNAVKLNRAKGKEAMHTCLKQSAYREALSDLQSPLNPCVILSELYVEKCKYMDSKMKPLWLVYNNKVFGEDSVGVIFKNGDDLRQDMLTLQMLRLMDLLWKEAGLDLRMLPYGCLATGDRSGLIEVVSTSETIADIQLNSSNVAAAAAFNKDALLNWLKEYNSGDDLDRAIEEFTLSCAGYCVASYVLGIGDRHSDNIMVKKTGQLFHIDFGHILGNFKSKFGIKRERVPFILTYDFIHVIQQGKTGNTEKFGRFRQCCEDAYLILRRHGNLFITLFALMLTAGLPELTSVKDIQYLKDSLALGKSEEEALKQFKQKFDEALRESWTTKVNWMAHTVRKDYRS
Sequence of PI3Kβ (P27986 whole entry partner, canonical isoform): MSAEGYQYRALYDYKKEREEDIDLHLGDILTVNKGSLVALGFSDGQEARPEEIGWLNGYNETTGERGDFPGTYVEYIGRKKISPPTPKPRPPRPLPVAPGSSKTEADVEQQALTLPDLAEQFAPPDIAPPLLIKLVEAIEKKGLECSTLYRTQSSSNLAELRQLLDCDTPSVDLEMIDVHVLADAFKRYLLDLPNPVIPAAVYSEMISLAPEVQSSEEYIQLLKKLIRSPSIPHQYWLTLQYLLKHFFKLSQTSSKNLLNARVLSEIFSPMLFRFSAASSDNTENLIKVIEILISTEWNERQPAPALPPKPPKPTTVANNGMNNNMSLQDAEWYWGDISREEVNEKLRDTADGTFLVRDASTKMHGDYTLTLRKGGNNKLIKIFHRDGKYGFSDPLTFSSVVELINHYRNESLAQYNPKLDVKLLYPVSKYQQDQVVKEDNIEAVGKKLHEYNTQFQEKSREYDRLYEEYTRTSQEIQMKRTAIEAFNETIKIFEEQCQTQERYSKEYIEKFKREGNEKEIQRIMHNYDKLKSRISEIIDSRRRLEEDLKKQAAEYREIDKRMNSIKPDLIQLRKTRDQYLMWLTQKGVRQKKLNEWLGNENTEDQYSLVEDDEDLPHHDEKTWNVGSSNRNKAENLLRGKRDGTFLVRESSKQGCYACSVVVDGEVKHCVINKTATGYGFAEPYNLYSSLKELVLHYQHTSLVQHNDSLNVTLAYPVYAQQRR
(§4) All solutions were prepared with pure water, filtered through 0.45 µm PVDF Filter and stored at 4 °C. For PI3K and mTOR assays, the incubation buffer was HEPES/NaOH/MgCl2 (25 mM/8.84 mM/5 mM). Its pH was 7.2 and ionic strength was about 60 mM. […] Their pH was measured with a MeterLab PHM201 Portable pH-Meter (Radiometer Analytical, Villeurbanne, France). […]
(§5) In all enzymatic assays, after incubation, the electric field (of −30 kV) was applied to separate the ADP formed during the enzymatic reaction from the other reactants. ADP was detected at 254 nm for quantification. […]

The target in another assay is PI3Kγ (Homo sapiens, UniProt P48736). Description: PI3K isoform kinase assay, γ (CE-assay). It counts as biochemical. The following applies: read-out: IC50 on PI3K Isoforms, γ. The protocol:
as §3, §4, §5

Another assay addresses PI3Kδ (Homo sapiens, UniProt O00329). Description: PI3K isoform kinase assay, δ (CE-assay). It counts as biochemical. The settings on record: read-out: IC50 on PI3K Isoforms, δ. The protocol:
as §3, §4, §5

Another assay has as its target PI3Kα (Homo sapiens, UniProt P42336). The assay is described as follows: PI3Kα kinase assay (Adapta TR-FRET kit; capillary electrophoresis assay). It counts as biochemical. The settings on record: for IC50: mean of a triplicate experiment, standard deviation in small letters.

Structures are written as SMILES. Some results are limits rather than exact numbers.

Sequence of PI3Kα (P42336 whole entry): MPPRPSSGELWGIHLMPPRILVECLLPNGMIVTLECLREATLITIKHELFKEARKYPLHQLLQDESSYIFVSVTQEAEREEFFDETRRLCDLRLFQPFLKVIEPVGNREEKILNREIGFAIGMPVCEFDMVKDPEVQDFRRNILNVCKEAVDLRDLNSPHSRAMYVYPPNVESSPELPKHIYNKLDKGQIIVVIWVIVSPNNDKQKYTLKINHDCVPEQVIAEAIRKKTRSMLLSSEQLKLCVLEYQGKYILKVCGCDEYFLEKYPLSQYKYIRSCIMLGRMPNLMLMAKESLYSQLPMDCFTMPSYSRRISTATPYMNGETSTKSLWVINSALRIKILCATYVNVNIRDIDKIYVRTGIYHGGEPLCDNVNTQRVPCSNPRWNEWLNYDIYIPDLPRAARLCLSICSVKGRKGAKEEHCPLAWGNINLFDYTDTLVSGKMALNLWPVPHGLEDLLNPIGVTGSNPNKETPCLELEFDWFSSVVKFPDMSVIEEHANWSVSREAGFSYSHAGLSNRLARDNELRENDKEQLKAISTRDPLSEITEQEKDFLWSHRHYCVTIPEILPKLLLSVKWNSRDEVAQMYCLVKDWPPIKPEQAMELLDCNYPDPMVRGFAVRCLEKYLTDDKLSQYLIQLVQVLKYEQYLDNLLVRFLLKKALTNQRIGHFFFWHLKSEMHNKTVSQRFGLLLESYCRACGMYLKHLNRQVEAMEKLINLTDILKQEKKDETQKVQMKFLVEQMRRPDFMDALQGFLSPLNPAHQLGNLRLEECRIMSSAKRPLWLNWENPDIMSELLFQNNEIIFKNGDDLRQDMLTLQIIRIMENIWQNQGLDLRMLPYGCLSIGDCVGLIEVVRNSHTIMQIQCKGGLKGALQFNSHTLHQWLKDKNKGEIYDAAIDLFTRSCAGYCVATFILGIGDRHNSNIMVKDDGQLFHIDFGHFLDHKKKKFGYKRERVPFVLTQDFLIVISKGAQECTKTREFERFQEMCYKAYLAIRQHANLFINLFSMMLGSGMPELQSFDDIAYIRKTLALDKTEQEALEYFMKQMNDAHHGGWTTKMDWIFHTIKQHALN
Sequence of PI3Kα (P27986 whole entry partner): as the sequence (P27986 whole entry partner, canonical isoform) above
Sequence of PI3Kγ (P48736 whole entry, canonical isoform): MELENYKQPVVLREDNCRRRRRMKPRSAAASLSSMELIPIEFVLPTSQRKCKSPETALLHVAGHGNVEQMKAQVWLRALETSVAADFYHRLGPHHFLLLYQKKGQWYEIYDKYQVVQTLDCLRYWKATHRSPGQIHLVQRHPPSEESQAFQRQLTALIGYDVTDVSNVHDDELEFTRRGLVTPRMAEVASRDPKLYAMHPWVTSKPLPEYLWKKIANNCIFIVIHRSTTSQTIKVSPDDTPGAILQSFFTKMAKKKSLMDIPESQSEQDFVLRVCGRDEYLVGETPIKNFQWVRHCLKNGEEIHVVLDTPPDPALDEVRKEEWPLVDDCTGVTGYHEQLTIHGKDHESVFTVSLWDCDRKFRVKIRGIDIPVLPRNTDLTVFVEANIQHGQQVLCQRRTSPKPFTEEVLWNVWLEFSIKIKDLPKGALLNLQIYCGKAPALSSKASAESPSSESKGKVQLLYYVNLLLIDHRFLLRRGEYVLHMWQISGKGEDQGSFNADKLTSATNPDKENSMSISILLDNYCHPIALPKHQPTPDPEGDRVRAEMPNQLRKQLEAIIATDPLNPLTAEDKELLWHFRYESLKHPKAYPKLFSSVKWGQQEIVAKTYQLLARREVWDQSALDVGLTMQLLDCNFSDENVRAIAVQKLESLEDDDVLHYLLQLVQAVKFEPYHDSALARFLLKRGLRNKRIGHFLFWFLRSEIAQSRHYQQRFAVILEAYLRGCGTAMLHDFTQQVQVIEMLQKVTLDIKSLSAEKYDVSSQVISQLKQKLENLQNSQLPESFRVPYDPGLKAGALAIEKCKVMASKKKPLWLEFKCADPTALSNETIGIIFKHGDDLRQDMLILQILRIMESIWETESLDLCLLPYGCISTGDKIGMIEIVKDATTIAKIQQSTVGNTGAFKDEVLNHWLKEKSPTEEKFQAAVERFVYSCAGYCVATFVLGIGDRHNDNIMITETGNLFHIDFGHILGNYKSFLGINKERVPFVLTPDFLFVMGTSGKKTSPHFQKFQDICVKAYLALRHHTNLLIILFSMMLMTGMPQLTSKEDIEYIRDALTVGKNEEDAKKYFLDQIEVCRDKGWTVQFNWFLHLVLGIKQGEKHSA
Sequence of PI3Kδ (O00329 whole entry, canonical isoform): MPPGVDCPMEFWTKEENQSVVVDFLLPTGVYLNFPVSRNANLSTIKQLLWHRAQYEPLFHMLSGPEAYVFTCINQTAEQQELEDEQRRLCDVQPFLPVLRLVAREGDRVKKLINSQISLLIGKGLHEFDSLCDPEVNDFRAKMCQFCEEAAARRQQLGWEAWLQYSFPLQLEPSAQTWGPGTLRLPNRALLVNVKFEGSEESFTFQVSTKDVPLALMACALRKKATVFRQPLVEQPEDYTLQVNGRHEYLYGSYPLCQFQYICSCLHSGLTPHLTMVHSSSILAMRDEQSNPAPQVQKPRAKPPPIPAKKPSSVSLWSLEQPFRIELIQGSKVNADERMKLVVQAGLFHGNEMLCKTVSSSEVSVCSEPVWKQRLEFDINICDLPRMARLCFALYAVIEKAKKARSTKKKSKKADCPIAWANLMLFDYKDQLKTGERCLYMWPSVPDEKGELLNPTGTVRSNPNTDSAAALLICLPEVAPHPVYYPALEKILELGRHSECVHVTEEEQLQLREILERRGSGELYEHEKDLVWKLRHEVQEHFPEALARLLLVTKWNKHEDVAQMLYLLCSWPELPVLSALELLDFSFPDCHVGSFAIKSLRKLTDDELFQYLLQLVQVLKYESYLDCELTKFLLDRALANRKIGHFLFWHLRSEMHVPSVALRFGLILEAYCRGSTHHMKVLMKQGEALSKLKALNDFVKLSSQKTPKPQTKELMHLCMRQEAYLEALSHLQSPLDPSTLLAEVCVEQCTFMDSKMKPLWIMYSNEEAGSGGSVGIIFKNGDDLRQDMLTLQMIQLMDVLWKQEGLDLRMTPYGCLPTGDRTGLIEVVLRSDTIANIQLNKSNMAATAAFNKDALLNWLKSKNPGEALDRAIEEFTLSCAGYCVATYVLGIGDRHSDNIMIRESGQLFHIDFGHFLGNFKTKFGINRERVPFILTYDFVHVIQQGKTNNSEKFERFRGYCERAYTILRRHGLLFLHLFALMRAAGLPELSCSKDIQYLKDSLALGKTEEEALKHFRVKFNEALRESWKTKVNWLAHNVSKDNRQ
Sequence of PI3Kδ (P27986 whole entry partner, canonical isoform): as the sequence (P27986 whole entry partner, canonical isoform) above
Protocol for PI3Kα: PI3K kinase activity was measured with the Adapta™ assay kit (Invitrogen, PV5099, Life Technologies, Carlsbad, CA, USA) while mTOR kinase activity was measured with the LANCE^TM Ultra kit (Perkin Elmer). […] Depending on the efficiency of the inhibitor, the level of ADP (which competes with the tracer) will vary, thereby directly affecting the binding of the tracer to the antibody. The TR-FRET signal will evolve accordingly. […] The experimental process was the following: the inhibitor solution (2.5 µL) was injected in a plate followed by the addition of 2.5 µL of PI3Kα and ATP/PIP2 (5 µL) solutions. After incubating for an hour at room temperature with no agitation and with the plate sealed, the kinase reaction was stopped by adding the Detection Solution to yield final concentrations of 10 nM for the tracer, 2 nM for the antibody and 30 mM of EDTA (5 µL). All of these compounds were diluted in a Detection Buffer (PV3574, Invitrogen) and the plate was sealed and incubated for the optimal time of 30 min at room temperature without shaking before the reading step.
The CE system used was a 1600 Hewlett Packard^3DCE (Agilent, Waldbronn, Germany) equipped with a photodiode array detection system. Agilent software 3D-CE Chemstation (rev B.04.02) was used to pilot the CE system and for signal acquisition. CE analyses were performed in silica capillaries (66 cm total length, 57.5 cm effective length, 50 µm i.d.) purchased from Polymicro Technologies (Phoenix, AZ, USA). New capillaries were conditioned by 1.0 M NaOH for 30 min and water for 5 min. They were then coated by rinsing with cationic PDADMAC solution (0.2% w/v) [46, 47]. The separation was conducted at −30 kV (reverse polarity) and at 30 °C. All rinse cycles were carried out at 4 bars. Between runs, the capillary was flushed for 1 min with water, 2 min with PDADMAC and 3 min with BGE.
(§6) All solutions were prepared with pure water, filtered through 0.45 µm PVDF Filter and stored at 4 °C. […] Their pH was measured with a MeterLab PHM201 Portable pH-Meter (Radiometer Analytical, Villeurbanne, France). […]
Protocol for mTOR: The amount of antibody bound to the peptide is directly related to its rate of phosphorylation. […] The experimental process was the following: inhibitor solution (2.5 µL) was injected in a plate followed by the addition of 2.5 µL of mTOR, and ATP/peptide (2.5 µL) solutions. After incubating for two hours at room temperature with no agitation and with the plate sealed, the kinase reaction was stopped by adding 5 μL of a solution at 32 mM EDTA. After 5 min of plate agitation, the detection solution (CR97-100, Perkin-Elmer) containing the antibody (5 μL) was added in each well to yield a final concentration of 2 nM of the antibody. The plate was sealed and incubated for the optimal time of 1h at room temperature without shaking before the assay readout at 665 nm.
The CE system used was a 1600 Hewlett Packard^3DCE (Agilent, Waldbronn, Germany) equipped with a photodiode array detection system. […]
as §6

As usually defined, the IC50 is the midpoint of a concentration-inhibition curve. On to `Oc1cccc(-c2nc(N3CCOCC3)c3ncc(Cl)cc3n2)c1` [Compound 5, 7-Chloro-2-(3-hydroxyphenyl)-4-morpholinylpyrido[3,2-d]pyrimidine], for which the IC50 (in assay [1]; in the assay on normal human fibroblast) was above 25000 nM in each case.

As for `Cc1cnc2c(N3CCOCC3)nc(-c3cccc(O)c3)nc2c1` [Compound 6, 3-(7-Methyl-4-morpholinylpyrido[3,2-d]pyrimidin-2-yl)phenol], the “SI (mTOR/PI3Kα Ratio)” value at mTOR stood at 4.6. For the same compound, the 50% inhibitory concentration (IC50) on PI3Kβ is 450 nM; at PI3Kγ it was 5500 nM; on PI3Kδ, 1400 nM.

As to `OCc1cnc2c(N3CCOCC3)nc(-c3cccc(O)c3)nc2c1` [Compound 15, 3-(7-(Hydroxymethyl)-4-morpholinylpyrido[3,2-d]pyrimidin-2-yl)phenol], on PI3Kα (C-7 hydroxymethyl compared with chlorine or methyl derivatives 5 and 6), the “fold reduction in the PI3Kα inhibition level” value worked out at 30 fold.

Consider `[N-]=[N+]=NCc1cnc2c(N3CCOCC3)nc(-c3cccc(O)c3)nc2c1` [Compound 19, 3-(7-(Azidomethyl)-4-morpholinylpyrido[3,2-d]pyrimidin-2-yl)phenol], for which the 50% inhibitory concentration (IC50) (in assay [1]; with normal human fibroblast) was above 25000 nM in each case.

In the case of `COCc1cn(Cc2cnc3c(N4CCOCC4)nc(-c4cccc(O)c4)nc3c2)nn1` [Compound 21, 3-(7-((4-(Methoxymethyl)-1H-1.2.3-triazol-1-yl)methyl)-4-morpholinylpyrido[3,2-d]pyrimidin-2-yl)phenol], the half-inhibitory concentration (IC50) is 10 nM on PI3Kα; 50 nM on PI3Kβ; 2000 nM on PI3Kγ; 1200 nM on PI3Kδ; above 25000 nM in the assay on normal human fibroblast.

Regarding `CO/N=C/c1cnc2c(N3CCOCC3)nc(-c3cccc(O)c3)nc2c1` [Compound 32, 2-(3-Hydroxyphenyl)-4-morpholinylpyrido[3,2-d]pyrimidine-7-carbaldehyde O-methyl oxime], the IC50 against PI3Kα was 3 nM; in assay [1] it was above 25000 nM. In addition, at mTOR, the “SI (mTOR/PI3Kα Ratio)” value turned out to be 33.3.
